According to patent US20080305186A1, “Method and Composition for the Treatment of Cardiac Hypertrophy” (BOARD OF REGENTS, THE UNIVERSITY OF TEXAS SYSTEM, priority 2007, published 2008):

System: cardiac gene expression
Assay: Microarray analysis of cardiac gene expression (GeneChip Mouse Genome 430 2.0)
Format: in vivo, mice
Description: Microarray Sample Preparation and Analysis. Animal hearts were rapidly removed, and the atria and right ventricles were cut and immediately plunged into TRIzol Reagent (Life Technologies). Total RNA was isolated following the manufacturer's instructions, purified by phenol-chloroform extraction and then ethanol precipitation, and 20 μg further processed for microarray analysis. Briefly, cDNA synthesis, in vitro transcription, and labeling and fragmentation to produce the oligonucleotide probes were performed as instructed by the GeneChip manufacturer (Affymetrix). The probes were first hybridized to a test array (Affymetrix) and then to the GeneChip Mouse Genome 430 2.0 Array, using the GeneChip Hybridization Oven 640. The chips were washed in a GeneChip Fluidics Station 450 (Affymetrix), and the results were visualized with a GeneChip G7 scanner (Affymetrix). RMA normalization, pairwise comparisons, Student's t test and Benjamini and Hochberg correction were subsequently performed using GeneSifter (VizX Labs, Seattle, Wash.) and Spotfire DecisionSite 8.3 (Spotfire, Inc., Somerville, Mass.).
Effects on Gene Expression Profile. […] One mouse heart was used for each array, and was performed in triplicate, generating a total of 12 arrays. GeneSifter was used to perform RMA normalization, pairwise comparisons of averaged signal intensity values, and Student's t-test with Benjamini and Hochberg correction, and Spotfire was used to perform pairwise comparisons. […] Additionally, genes that were altered between any two N or cardiac hypertrophy samples were removed, as these alterations most likely represented normal variations between mice.

[1] = CH vs drug-treated isoproterenol mice
[2] = heart, drug + isoproterenol vs isoproterenol only
[3] = mouse heart, vs isoproterenol only (CH), CH vs normal 2.1
[4] = mouse heart, vs isoproterenol only (CH), CH vs normal 2.2
[5] = mouse heart, vs isoproterenol only (CH), CH vs normal 2.6
[6] = mouse heart, vs isoproterenol only (CH), CH vs normal 2.7
[7] = mouse heart, vs isoproterenol only (CH), CH vs normal 2.9
[8] = mouse heart, vs isoproterenol only (CH), CH vs normal 3.2
[9] = mouse heart, vs isoproterenol only (CH), CH vs normal 3.3
[10] = mouse heart, vs isoproterenol only (CH), CH vs normal 3.7
[11] = mouse heart, vs isoproterenol only (CH), CH vs normal 4.9

NC(=O)N1c2ccccc2C=Cc2ccccc21 [carbamazepine]
Number of Altered Genes, Average FC (1.5-fold) [1]: 709
Number of Altered Genes, Average FC (2-fold) [1]: 1
Number of Altered Genes, Minus disease variability [1]: 1
Number of Altered Genes, Minus natural variability [1]: 1
Number of Altered Genes, Reproducible [1]: 1
Number of Altered Genes, Student's t test [1]: 306
Number of Altered Genes, Correction (CH vs drug-treated isoproterenol mice, Benjamini and Hochberg): 1
Number of Altered Genes, Disease-specific (CH vs drug-treated isoproterenol mice, of 779 genes altered N vs CH, altered in the reverse direction): 1
Cytokine inducible SH2-containing protein 3 (Socs3), Microarray FC [2]: −2.4 FC
GATA binding protein 4 (Gata4), Microarray FC [2]: 2.1 FC
Lipocalin 2 (Lcn2), Microarray FC [2]: −1.6 FC
NADPH oxidase 4 (Nox4), Microarray FC [2]: −1.9 FC
Oncostatin receptor (Osmr), Microarray FC [2]: −1.7 FC
SET and MYND domain containing 1 (Smyd1), Microarray FC [2]: 1.7 FC
Serine protease inhibitor 2-2 (Spi2-2) (Serpin3n), Microarray FC [2]: −2.3 FC
FC Procollagen, type IV, alpha 1 (Col4a1), AW536690 (mouse heart, vs isoproterenol only (CH), CH vs normal 1.6): −1.8 fold
FC Fatty acid binding protein 4, adipocyte (Fabp4), BC002148 (mouse heart, vs isoproterenol only (CH), CH vs normal 1.8): −1.6 fold
FC Adenosine deaminase (Ada), NM_007398 [3]: −2.2 fold
FC EST, AV032095 [3]: −1.6 fold
FC EST, BE630073 [3]: −1.6 fold
FC Amine oxidase, copper containing 3 (Aoc3), NM_009675 [4]: −1.8 fold
FC CD14 antigen (CD14), NM_009841 [4]: −1.6 fold
FC Flavin containing monooxygenase 1 (Fmo1), BC011229 [4]: −1.6 fold
FC cDNA, BG075321 [4]: −1.6 fold
FC A disintegrin-like and metallopeptidase (reprolysin type) with thrombospondin (ADAMTS)-like 2 (Adamtsl2), AK020831 (mouse heart, vs isoproterenol only (CH), CH vs normal 2.3): −1.6 fold
FC Purine-nucleoside phosphorylase (Pnp), BC003788 (mouse heart, vs isoproterenol only (CH), CH vs normal 2.4): −1.7 fold
FC ESTs, AI447357 (mouse heart, vs isoproterenol only (CH), CH vs normal 2.5): −1.9 fold
FC Dipeptidase 1 (Dpep1), NM_007876 [5]: −1.6 fold
FC Fc fragment of IgG, low affinity IIIa, receptor (Fcrl3), BC027310 [5]: −1.6 fold
FC cDNA, AW552579 [5]: −1.7 fold
FC G7e protein, NM_033075 [6]: −1.6 fold
FC Mitogen activated protein kinase kinase kinase 8 (Map3k8), NM_007746 [6]: −1.7 fold
FC cDNA, BC019553 [6]: −2.2 fold
FC Decorin (Dcn), AV321547 [7]: −1.6 fold
FC Glycoprotein (transmembrane) nmb (Gpnmb), NM_053110 [7]: −1.5 fold
FC C-type lectin domain family 1, member a (Clec1a), BB035924 (mouse heart, vs isoproterenol only (CH), CH vs normal 3.1): −1.6 fold
FC CUB and zona pellucida-like domains 1 (Cuzd1), NM_008411 [8]: −1.5 fold
FC G7e protein, BC027314 [8]: −2.2 fold
FC Serine (or cysteine) peptidase inhibitor, clade A, member 3G (Serpina3g), BC002065 [8]: −1.7 fold
FC cDNA, BG297038 [8]: −2.9 fold
FC Pyruvate dehydrogenase kinase 4 (Pdk4), NM_013743 [9]: 1.7 fold
FC cDNA, AK012898 [9]: −2.0 fold
FC TRAF2 and K interacting kinase (Tnik), AI117633 (mouse heart, vs isoproterenol only (CH), CH vs normal 3.4): −1.7 fold
FC Interleukin-1 receptor-associated kinase 3 (Irak3), AV228493 (mouse heart, vs isoproterenol only (CH), CH vs normal 3.5): −1.6 fold
FC Mcf.2 transforming sequee-like (Mcf21), AV293368 [10]: −1.5 fold
FC cDNA, BE956710 [10]: −1.7 fold
FC Lipopolysaccharide binding protein (Lbp), NM_008489 (mouse heart, vs isoproterenol only (CH), CH vs normal 3.8): −1.8 fold
FC Nuclear factor of kappa light polypeptide gene enhaer in B-cells inhibitor, zeta (Nfkbiz), NM_030612 (mouse heart, vs isoproterenol only (CH), CH vs normal 3.9): −1.6 fold
FC Colony stimulating factor 2 receptor, beta 2, low-affinity (granulocyte-macrophage) (Csf2rb2), NM_007781 (mouse heart, vs isoproterenol only (CH), CH vs normal 4.1): −1.8 fold
FC NADPH oxidase 4 (Nox4), BC021378 (mouse heart, vs isoproterenol only (CH), CH vs normal 4.3): −1.9 fold
FC Calcium-sensitive chloride conductae protein-1 (Clca1), AF047838 (mouse heart, vs isoproterenol only (CH), CH vs normal 4.4): −1.8 fold
FC cDNA, AK008807 (mouse heart, vs isoproterenol only (CH), CH vs normal 4.5): −1.7 fold
FC Serum amyloid A 3 (Saa3), NM_011315 (mouse heart, vs isoproterenol only (CH), CH vs normal 4.7): −2.0 fold
FC Caer related gene-liver 1 (CRG-L1), AF282864 [11]: −1.5 fold
FC Calcium/calmodulin-dependent protein kinase II, beta (Camk2b), BG862223 [11]: −2.8 fold
FC Oostatin receptor (Osmr), NM_011019 (mouse heart, vs isoproterenol only (CH), CH vs normal 5.1): −1.7 fold
FC Cytokine inducible SH2-containing protein 3 (Socs3), BB241535 (mouse heart, vs isoproterenol only (CH), CH vs normal 6.0): −2.3 fold
